How the values were obtained:
ERβ [1] = biological target: T1, ERβ (Homo sapiens, UniProt Q92731); settings: in the presence of ERβ
Text: (§1) Plasmid Construction. […] ERβ mutants were created with QuikChange site-directed mutagenesis kits (Stratagene), by using oligonucleotides containing the mutation. The mutants were sequenced with Sequenase kits (Amersham Pharmacia) to verify the presence of the mutation.

ERβ [2] = biological target: T1, ERβ; assay: Repression of TNF-α activation of TNF-RE tkLuc in U2OS cells; format: cell-based; parameters: expressed in transfected cells
TNF-RE tkLuc = assay: Activation of TNF-RE tkLuc reporter (Example 2); format: cell-based, human; settings: for effect on the repression induced by E2: TNF-RE tkLuc
Text: as §1

breast cancer [3] = settings: cited from earlier work
breast cancer [4] = settings: among 5129 women in the treatment group, median follow-up 40 months; cited from earlier work
ERβ [5] = biological target: T1, ERβ; assay: ERE-tk-Luc luciferase assay in U2OS osteosarcoma cells; format: cell-based; parameters: expressed in transfected cells; host or cells: U2OS (human osteosarcoma); settings: co-administration with the extract

T1 sequence (Q92731 whole entry): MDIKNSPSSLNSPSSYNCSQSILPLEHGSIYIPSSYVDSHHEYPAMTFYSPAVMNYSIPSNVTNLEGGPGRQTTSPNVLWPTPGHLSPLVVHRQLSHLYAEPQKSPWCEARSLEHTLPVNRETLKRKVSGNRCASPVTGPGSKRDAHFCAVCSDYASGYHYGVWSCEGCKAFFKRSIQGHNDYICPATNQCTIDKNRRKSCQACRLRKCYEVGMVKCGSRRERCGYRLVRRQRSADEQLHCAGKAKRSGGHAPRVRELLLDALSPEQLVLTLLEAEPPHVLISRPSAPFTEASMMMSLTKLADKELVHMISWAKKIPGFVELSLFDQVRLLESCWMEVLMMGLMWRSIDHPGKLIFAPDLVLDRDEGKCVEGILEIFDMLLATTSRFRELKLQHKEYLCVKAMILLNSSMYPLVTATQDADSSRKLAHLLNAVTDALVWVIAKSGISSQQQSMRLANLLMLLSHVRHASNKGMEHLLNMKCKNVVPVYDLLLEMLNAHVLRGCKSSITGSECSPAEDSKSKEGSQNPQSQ

## C[C@]12CC[C@@H]3c4ccc(O)cc4CC[C@H]3[C@@H]1CC[C@@H]2O [Herb E2, estradiol]
ERβ [1]
  repression of TNF-α activation of TNF-RE tkLuc: 60-80%
ERβ [2]
  repression of TNF-α activation of TNF-RE: 100%

## CC/C(=C(\c1ccccc1)c1ccc(OCCN(C)C)cc1)c1ccccc1 [tamoxifen]
TNF-RE tkLuc
  activation of TNF-RE tkLuc by antiestrogens: 2 fold
  effect on the repression induced by E2: abolished the repression induced by E2
Breast cancer [3]; BCPT, women at high risk for breast cancer
  reduction of the risk of primary invasive breast cancer: 49%
Breast cancer [3]; five years of therapy, ER-positive breast cancer
  reduction of the risk of recurrences: 42%
Breast cancer [3]; five years of therapy
  reduction of mortality from breast cancer: 22%

## TNF-α
TNF-RE tkLuc; TNF-α as stimulus
  activation of 3 copies of the TNF-RE (−125 to −82) upstream of the tk promoter: 5-10 fold

## O=C(c1ccc(OCCN2CCCCC2)cc1)c1c(-c2ccc(O)cc2)sc2cc(O)ccc12 [raloxifene]
TNF-RE tkLuc
  activation of TNF-RE tkLuc by antiestrogens: 2 fold
  effect on the repression induced by E2: abolished the repression induced by E2
Breast cancer [4]
  cases of breast cancer: 13 cases
ERβ [5]; FIG. 5
  effect of anti-estrogen on extract-stimulated ERE-tk-Luc expression: counteracted
ERβ [5]; FIG. 5, listed as Raloxifene
  effect of anti-estrogen on extract-stimulated ERE-tk-Luc expression: attenuated

## C[C@]12CC[C@@H]3c4ccc(O)cc4C[C@@H](CCCCCCCCC[S+]([O-])CCCC(F)(F)C(F)(F)F)[C@H]3[C@@H]1CC[C@@H]2O (some centres unmarked) [ICI 182780]
TNF-RE tkLuc
  activation of TNF-RE tkLuc by antiestrogens: 2 fold
  effect on the repression induced by E2: abolished the repression induced by E2
ERβ [5]; FIG. 5
  effect of anti-estrogen on extract-stimulated ERE-tk-Luc expression: counteracted
ERβ [5]; FIG. 5, listed as ICI
  effect of anti-estrogen on extract-stimulated ERE-tk-Luc expression: attenuated

— patent publication US20090297637A1
